Experiment [1] deals with IL-1β secretion of THP-1 cells. In words: Effect of NLRP3 inhibitor on IL-1β secretion of THP-1 cells (AlphaLISA). To be noted: Homo sapiens; PMA, LPS and Nigericin stimulated THP-1 cells, IL-1β in supernatant; read-out: IC50 (nM), THP-1 cells to detect NLRP3 inhibitors. Format: cell-based. As to the method: This experiment used the PerkinElmer AlphaLISA_human_IL1β kit (AL220 C/F). The detection buffer was RPMI-1640+10FBS. AlphaLISA Immunoassay Buffer, AlphaLISA Anti-IL1β Acceptor beads, Streptavidin (SA)-coated Donor beads, and Biotinylated Antibody Anti-IL1β were all included in the kit.
The density of THP1 cells was adjusted to 4×10^5 cells/mL, PMA (final concentration 50 nM) was added, inoculated into 96-well flat-bottom plates at 200 μL/well, and stimulated overnight at 37° C., 5% CO2 (try to <16h). The next day, the supernatant was discarded, and the flat washed twice with DPBS ([…]/time). Then LPS solution (final concentration of 100 ng/ml) was added at 198 μL/well, incubated at 37° C., 5% CO2 for 3h. 1 μL of the corresponding concentration of compounds was added to each well according to the experimental MAP, incubated at 37° C., 5% CO2 for 1 h. 1 μL Nigericin (final concentration of […]) was added to each well, incubated overnight at 5% CO2 (>18h). On the third day, 5 μL of supernatant was taken, diluted 20 times, and the content of IL-Iβ in the supernatant was detected by Human Interleukin 1 beta (IL1β) Kit. Envision was used to read the AlphaLISA test value of Ex=680/[…]. GraphPad Prism 9.5.0 was used to analyze the data, and the IC50 value of the compound for IL-Iβ antagonism was fitted by four-parameter Logistic.
Background: Bead proximity is the source of the signal in Alpha formats.

For experiment [2], the target named is T1, His6-Flag-TEV-NLRP3 (134-1036) (Homo sapiens, UniProt Q96P20).
T1 construct: fused on or other part: N-terminal His6 tag, Flag tag and TEV cleavage site
T1 sequence (Q96P20 134-1036 limits assumed): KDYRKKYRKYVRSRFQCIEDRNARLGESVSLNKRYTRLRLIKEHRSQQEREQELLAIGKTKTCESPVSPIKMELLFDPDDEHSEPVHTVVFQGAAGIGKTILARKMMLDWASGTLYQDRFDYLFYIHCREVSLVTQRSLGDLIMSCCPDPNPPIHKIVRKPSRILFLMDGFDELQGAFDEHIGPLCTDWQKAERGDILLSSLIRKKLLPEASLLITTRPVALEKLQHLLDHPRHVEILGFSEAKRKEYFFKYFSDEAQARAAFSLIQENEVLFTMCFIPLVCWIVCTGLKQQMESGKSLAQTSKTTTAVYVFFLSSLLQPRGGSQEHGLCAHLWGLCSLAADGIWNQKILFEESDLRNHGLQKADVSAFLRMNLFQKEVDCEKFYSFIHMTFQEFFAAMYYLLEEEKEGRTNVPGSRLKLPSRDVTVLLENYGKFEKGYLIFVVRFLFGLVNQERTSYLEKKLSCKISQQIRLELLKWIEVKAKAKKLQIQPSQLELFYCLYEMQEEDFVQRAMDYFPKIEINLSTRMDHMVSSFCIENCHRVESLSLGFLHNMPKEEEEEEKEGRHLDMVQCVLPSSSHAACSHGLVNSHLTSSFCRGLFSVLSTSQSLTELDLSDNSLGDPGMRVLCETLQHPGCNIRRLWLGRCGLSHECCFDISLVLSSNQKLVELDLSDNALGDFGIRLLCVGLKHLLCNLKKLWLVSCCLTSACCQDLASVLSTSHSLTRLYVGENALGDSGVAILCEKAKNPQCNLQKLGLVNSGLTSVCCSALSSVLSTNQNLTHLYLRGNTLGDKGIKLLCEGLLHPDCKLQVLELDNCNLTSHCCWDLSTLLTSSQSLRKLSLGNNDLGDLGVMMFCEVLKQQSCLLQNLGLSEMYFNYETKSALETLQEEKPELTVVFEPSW
As to the kind of experiment: NLRP3 fluorescence polarization (FP) binding assay, competition with probe NP3-301. As to conditions: competition with NP3-301 for binding to NLRP3 (134-1036), 30 nM protein. The procedure, abridged:
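Compound was preincubated 60 min at room temperature with NLRP3 protein (30 nM final) in 50 mM Hepes pH 7.4, 150 mM NaCl, 2.5 mM MgCl2, 1 mM TCEP, 100 μM ATP. Probe NP3-301 (0.5 nM final) was then added for 30 min. Fluorescence polarization was read at ex 485/em 535 nm, and IC50 was obtained by four-parameter logistic fit.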
On the technique in general: Polarisation of emitted light reports the rotation of a fluorescent probe.

Another experiment deals with T2, CYP2C9 (Homo sapiens, UniProt P11712).
T2 construct: 0.05 mg/mL liver microsome (BioIVT, IHG) phosphate buffer solution; tissue BioIVT IHG; host or cells: human liver microsomes
T2 sequence (P11712 whole entry): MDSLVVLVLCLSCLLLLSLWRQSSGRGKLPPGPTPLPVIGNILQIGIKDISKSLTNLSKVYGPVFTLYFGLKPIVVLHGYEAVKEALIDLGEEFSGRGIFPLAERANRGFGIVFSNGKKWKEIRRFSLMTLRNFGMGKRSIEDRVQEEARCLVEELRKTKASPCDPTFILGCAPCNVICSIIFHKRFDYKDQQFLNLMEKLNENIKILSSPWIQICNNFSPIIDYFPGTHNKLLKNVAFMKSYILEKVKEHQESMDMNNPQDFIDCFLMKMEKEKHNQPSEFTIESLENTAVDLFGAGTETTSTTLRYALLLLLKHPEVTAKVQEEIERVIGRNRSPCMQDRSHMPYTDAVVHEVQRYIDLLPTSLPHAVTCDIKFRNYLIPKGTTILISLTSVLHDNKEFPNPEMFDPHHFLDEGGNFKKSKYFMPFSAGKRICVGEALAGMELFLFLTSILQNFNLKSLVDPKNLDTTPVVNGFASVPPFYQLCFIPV
As to the kind of experiment: CYP450 enzyme inhibition in human liver microsomes, CYP2C9. The experiment is classed as in vitro ADME. As to conditions: substrate Diclofenac Sodium, read-out: Inhibitory activity IC50 (μM) CYP2C9. As for the experimental part: This experiment incubates the compound, liver microsomes and different CYP subtype enzyme substrates in a 37° C. water bath to measure the amount of substrate metabolites produced and evaluate the inhibitory effect of the compound of the present disclosure on CYP enzymes based on the IC50 value.
i. The compound was diluted to 0, 0.02 mM, 0.06 mM, 0.2 mM, 0.6 mM, 2 mM and 6 mM concentrations with DMSO (Aladdin, catalog number: D103273-500 ml).
ii. The enzyme substrate solutions of each CYP subtype were prepared by phosphate buffer (sigma: V900050-500G).
iii. Sample incubation. […] After centrifugation at 4000 rpm and 4° C. for 40 min, the supernatant was diluted with pure water according to the response of the substrate metabolites and then detected by UPLC-MS/MS (Sciex, Q-Trap 4500). […]
The inhibitory effect of the compound on each P450 enzyme in human liver microsomes was calculated as the percentage of reduced metabolite formation compared with the non-inhibitory control (i.e., blank DMSO). The IC50 value for each P450 enzyme in human liver microsomes was calculated using the logarithm of the remaining activity and the inhibitor concentration using Graphpad Prism software. […]
In general terms: Microsomes from liver hold many membrane-bound enzymes, among them those of drug oxidation.

Where only a bound is given, the exact number is not on record here.

As for `CC(=O)N1CCOC[C@H]1CNc1nc2nc(-c3c(C)cc(C(F)(F)F)cc3O)ccc2o1` [Compound 111], the IC50 was less than 50 nM in experiment [1], not above 100 nM in experiment [2] and more than 30 µM on CYP2C9.

As a reminder, the IC50 is the concentration that inhibits the measured activity by half.
